Laboratory results: patent US4405608A, “Novel peptide” (Novo Industri A/S, priority 1981, dated 1983)
No end group written: not given here.

Assay: Toxicology: repeated subcutaneous administration to cats
Type: in vivo
Details: repeated s.c. administration of increasing doses up to 16 μg/kg body weight

## RSLQNTEEKSRSFPAPQTDPLDDPDQMTED [GRPP]
  adverse effects: did not cause any adverse effects
